In general, EC50 refers to the concentration needed to bring the measured effect to its halfway point. As a reminder, the inhibition is the change of the read-out against control, counted positive when it falls. What is called EC20 is the concentration needed for an effect of 20%.

In test [1] the target is T1, Muscarinic acetylcholine receptor M4 (Rattus norvegicus) (UniProt P08485).
T1 sequence (whole entry): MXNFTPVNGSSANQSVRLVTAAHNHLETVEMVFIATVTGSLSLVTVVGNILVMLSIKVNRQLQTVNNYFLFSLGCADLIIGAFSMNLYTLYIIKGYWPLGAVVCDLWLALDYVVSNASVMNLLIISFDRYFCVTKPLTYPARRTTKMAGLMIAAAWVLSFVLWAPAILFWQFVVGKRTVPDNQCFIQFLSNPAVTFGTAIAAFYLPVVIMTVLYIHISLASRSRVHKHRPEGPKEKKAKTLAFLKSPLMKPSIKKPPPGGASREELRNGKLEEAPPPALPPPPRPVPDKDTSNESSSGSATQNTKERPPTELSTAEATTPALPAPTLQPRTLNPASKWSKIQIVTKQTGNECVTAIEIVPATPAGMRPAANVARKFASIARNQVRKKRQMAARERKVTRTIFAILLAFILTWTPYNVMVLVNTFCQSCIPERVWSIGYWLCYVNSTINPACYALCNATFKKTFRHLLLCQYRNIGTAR
Kind of test: (§1) Allosteric activation of rat recombinant muscarinic M4 receptor expressed in CHO cells assessed as potentiation of 10 uM acetylcholine-induced calcium mobilization after 1 hr by fluorescence assay. It counts as functional, cell-based. Background: A change in cytosolic calcium serves as a functional read-out for many receptors and channels.

Test [2] deals with T2, Muscarinic acetylcholine receptor M2 (Rattus norvegicus) (UniProt P10980).
T2 sequence (whole entry): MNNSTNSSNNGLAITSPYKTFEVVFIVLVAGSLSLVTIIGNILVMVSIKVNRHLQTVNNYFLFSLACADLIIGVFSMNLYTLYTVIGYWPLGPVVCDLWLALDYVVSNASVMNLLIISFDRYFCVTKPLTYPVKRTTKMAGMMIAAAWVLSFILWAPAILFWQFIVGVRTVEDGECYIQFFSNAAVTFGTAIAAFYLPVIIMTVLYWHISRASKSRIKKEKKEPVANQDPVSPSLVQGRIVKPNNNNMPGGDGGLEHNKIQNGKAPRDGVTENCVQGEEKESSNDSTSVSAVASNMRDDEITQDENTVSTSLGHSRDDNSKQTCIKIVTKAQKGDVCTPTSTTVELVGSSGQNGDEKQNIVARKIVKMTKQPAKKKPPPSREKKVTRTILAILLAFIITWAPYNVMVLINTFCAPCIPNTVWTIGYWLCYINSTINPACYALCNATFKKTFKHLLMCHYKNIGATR
Kind of test: Allosteric activation of rat recombinant muscarinic M2 receptor expressed in CHO cells assessed as potentiation of acetylcholine-induced calcium mobilization at 10 uM after 1 hr by fluorescence assay. It counts as functional, cell-based.

Test [3] addresses T3, Muscarinic acetylcholine receptor M1 (Rattus norvegicus) (UniProt P08482).
T3 sequence (whole entry): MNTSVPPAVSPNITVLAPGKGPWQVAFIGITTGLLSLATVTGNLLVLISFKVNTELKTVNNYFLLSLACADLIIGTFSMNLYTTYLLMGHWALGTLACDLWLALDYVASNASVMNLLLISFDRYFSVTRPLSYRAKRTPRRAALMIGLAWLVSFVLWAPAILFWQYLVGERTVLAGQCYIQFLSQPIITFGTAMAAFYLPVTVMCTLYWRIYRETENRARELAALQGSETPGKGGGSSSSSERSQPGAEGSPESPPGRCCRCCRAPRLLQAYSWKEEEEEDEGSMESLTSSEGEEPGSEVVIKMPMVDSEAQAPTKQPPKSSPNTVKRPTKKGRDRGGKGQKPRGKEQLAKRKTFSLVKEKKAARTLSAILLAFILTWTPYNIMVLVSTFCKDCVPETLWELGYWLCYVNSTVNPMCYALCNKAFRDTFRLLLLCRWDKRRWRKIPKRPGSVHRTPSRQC
Kind of test: Allosteric activation of rat recombinant muscarinic M1 receptor expressed in CHO cells assessed as potentiation of acetylcholine-induced calcium mobilization at 10 uM after 1 hr by fluorescence assay. It counts as functional, cell-based.

Test [4] concerns the target T1, Muscarinic acetylcholine receptor M4 (Rattus norvegicus). The test can be described thus: Allosteric activation of rat recombinant muscarinic M4 receptor expressed in CHO cells assessed as […] in acetylcholine EC50 for induction of calcium mobilization at 10 uM after 1 hr by fluorescence assay. It counts as functional, cell-based.
For test [5], the target named is T4, Muscarinic acetylcholine receptor M5 (Rattus norvegicus) (UniProt P08911).
T4 sequence (whole entry): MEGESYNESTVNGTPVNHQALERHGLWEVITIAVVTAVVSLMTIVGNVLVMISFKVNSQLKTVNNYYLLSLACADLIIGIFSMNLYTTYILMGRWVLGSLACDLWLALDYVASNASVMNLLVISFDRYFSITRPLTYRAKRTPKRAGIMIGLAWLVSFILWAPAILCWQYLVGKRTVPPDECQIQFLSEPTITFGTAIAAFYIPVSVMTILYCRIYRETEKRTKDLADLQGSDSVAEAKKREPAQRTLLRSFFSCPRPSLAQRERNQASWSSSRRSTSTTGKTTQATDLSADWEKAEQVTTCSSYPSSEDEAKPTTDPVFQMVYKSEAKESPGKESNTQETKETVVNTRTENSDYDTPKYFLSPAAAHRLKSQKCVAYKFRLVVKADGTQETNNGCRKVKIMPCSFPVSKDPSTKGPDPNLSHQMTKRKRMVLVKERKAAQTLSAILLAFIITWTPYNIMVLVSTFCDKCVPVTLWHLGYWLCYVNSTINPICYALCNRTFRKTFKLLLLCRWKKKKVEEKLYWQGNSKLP
Kind of test: Allosteric activation of rat recombinant muscarinic M5 receptor expressed in CHO cells assessed as potentiation of acetylcholine-induced calcium mobilization at 10 uM after 1 hr by fluorescence assay. It counts as functional, cell-based.

The target of test [6] is Muscarinic acetylcholine receptor M3 (Rattus norvegicus) (UniProt P08483). The test can be described thus: Allosteric activation of rat recombinant muscarinic M3 receptor expressed in CHO cells assessed as potentiation of acetylcholine-induced calcium mobilization at 10 uM after 1 hr by fluorescence assay. It counts as functional, cell-based.
Sequence of Muscarinic acetylcholine receptor M3 (Rattus norvegicus) (P08483 whole entry, looked up): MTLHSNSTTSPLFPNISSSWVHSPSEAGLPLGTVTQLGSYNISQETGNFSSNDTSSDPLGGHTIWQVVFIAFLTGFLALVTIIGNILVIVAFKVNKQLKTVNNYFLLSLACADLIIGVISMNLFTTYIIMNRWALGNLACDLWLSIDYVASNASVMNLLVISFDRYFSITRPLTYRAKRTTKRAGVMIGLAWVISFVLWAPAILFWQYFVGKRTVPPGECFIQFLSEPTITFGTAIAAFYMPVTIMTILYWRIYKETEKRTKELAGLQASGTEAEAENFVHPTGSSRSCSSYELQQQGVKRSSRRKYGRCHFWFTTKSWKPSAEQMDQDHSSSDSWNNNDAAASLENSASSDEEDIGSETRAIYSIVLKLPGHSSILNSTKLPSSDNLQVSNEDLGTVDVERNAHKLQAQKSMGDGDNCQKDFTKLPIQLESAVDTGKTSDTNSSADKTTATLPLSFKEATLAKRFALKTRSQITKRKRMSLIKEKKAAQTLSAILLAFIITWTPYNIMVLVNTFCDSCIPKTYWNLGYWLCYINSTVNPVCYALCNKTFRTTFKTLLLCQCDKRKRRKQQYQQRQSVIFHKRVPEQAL
Test [7] deals with T5, Muscarinic acetylcholine receptor M4 (Rattus norvegicus, UniProt P08485).
T5 sequence (P08485 whole entry): T1 sequence (whole entry)
Kind of test: Allosteric activation of rat recombinant muscarinic M4 receptor expressed in CHO cells assessed as potentiation of 15 nM acetylcholine-induced calcium mobilization after 1 hr by fluorescence assay. It counts as functional, cell-based.

Test [8] deals with T5, Muscarinic acetylcholine receptor M4. The test is described as §1. It counts as functional, cell-based.
Test [9] addresses T1, Muscarinic acetylcholine receptor M4 (Rattus norvegicus). Kind of test: Agonist activity at muscarinic M4 receptor in Sprague-Dawley rat hippocampal CA1 pyramidal neuron assessed as reduction in excitatory postsynaptic current at 5 uM by whole-cell electrophysiology in presence of carbachol relative to control. It counts as functional, tissue-based. As to conditions: Hippocampus.

The target is the same in test [10]. The test can be described thus: Allosteric activation of rat recombinant muscarinic M4 receptor expressed in CHO cells assessed as induction of calcium mobilization after 1 hr by fluorescence assay. It counts as functional, cell-based.

Each structure is given as a SMILES string. Activity calls are given as the source filed them. No cut-off for these calls is given here.

For `CCCNC(=O)c1sc2nc(C)cc(C)c2c1N`, the result in [1] was Active.
On to `Cc1cc(C)c2c(N)c(C(=O)NC3CC3)sc2n1`, for which the result in test [1] was Active.
Still for that read-out and setting: as for `Cc1cc(C)c2c(N)c(C(=O)NC(C)(C)C)sc2n1`, the entry is “Active”.
Turning to `Cc1cc(C)c2c(N)c(C(=O)NCc3ccco3)sc2n1`, the result in test [2], in test [3], in test [5] and in test [6] was inactive. In addition, the fold change (FC) in test [4] turned out to be 21.
For the compound `CCNC(=O)c1sc2nc(C)cc(C)c2c1N`, in test [1], the result was Active.
With `Cc1cc(C)c2c(N)c(C(=O)NCc3ccccc3)sc2n1`, the result in test [2], in test [3], in [5] and in test [6] was inactive. Also, the EC50 in test [7] came out at 1300 nM.
For the compound `Cc1cc(C)c2c(N)c(C(=O)NCc3ccc(F)cc3)sc2n1`, in test [4], the fold change (FC) came to 30. Moreover, in test [8], the 50% effective concentration (EC50) is 300 nM.
With `Cc1cc(C)c2c(N)c(C(=O)N[C@@H](C)c3ccccc3)sc2n1`, the result in [1] was inactive. For the same compound, the inhibition in test [9] was 61.6%.
As to `Cc1cc(C)c2c(N)c(C(=O)NCc3ccc(C(F)(F)F)cc3)sc2n1`, the fold change (FC) in test [4] amounted to 37. Further, in [8], the EC50 amounted to 715 nM.
Turning to `CC(=O)OCC[N+](C)(C)C`, in test [10], the EC20 is 15 nM and the EC100 stood at 10 µM.
For `Cc1cc(C)c2c(N)c(C(=O)N[C@H](C)c3ccccc3)sc2n1`, in [1], the outcome was Active.
The same measure, in the same setting: as for `Cc1cc(C)c2c(N)c(C(=O)NCC(C)C)sc2n1`, the entry is “Active”.
For the compound `Cc1cc(C)c2c(N)c(C(=O)NC(C)C)sc2n1`, the result in test [2], in test [3], in test [5] and in test [6] was inactive. For the same compound, the EC50 in test [7] came to 6000 nM.

The values are drawn from ChEMBL document CHEMBL1212695, “An allosteric potentiator of M4 mAChR modulates hippocampal synaptic transmission” (Nat Chem Biol, 2008).
